The record followed here is PubChem BioAssay (NCI).

Test in all cases: inhibition of tumour cell growth, NCI panel, 48 h
The test system of assay [1] is 786-0 renal.
The test system of assay [2] is ACHN renal.
For assay [3], the system named is BT-549 breast.
Assay [4] concerns EKVX NSCLC.
Assay [5] has as its system HCT-116 colon.
For assay [6], the system named is HOP-62 NSCLC.
Assay [7] deals with HS 578T breast.
Assay [8] concerns K-562 leukemia.
Assay [9] relates to MALME-3M melanoma.
In assay [10] the test system is NCI/ADR-RES ovarian.
For assay [11], the system named is PC-3 prostate.
Assay [12] concerns SF-539 CNS.
Assay [13] has as its system SK-MEL-5 melanoma.
Assay [14] relates to SR leukemia.
The subject of assay [15] is SW-620 colon.
The subject of assay [16] is TK-10 renal.
The test system of assay [17] is UACC-257 melanoma.
The subject of assay [18] is UACC-62 melanoma.
Assay [19] has as its system MDA-MB-231 breast.

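Growth conditions: 96-well plates. Treatment: test compound, 48 hours, 5 concentrations. Analysis: linear interpolation between bracketing concentrations; unreached endpoints set to highest concentration. TGI is the concentration that stops growth completely.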

As for `COc1cc(COC(=O)N2CCCCC2C(=O)O)c([N+](=O)[O-])cc1OC` (stereo not given), the TGI in assay [1], in assay [2], in assay [3], in assay [4], in assay [5] and in assay [6] was over 100 µM throughout. Also, the TGI in [7], in assay [8], in [9], in assay [10], in assay [11] and in [12] was over 100 µM each time. The TGI in assay [13], in assay [14], in assay [15], in [16], in assay [17] and in assay [18] was over 100 µM in each case.
Regarding `COc1ccc(C2=NN(C(=O)c3ccccc3)C(O)(c3cc(F)c(Cl)cc3Cl)C2)cc1OC` (stereo not given), the TGI in assay [1] is over 100 µM; in [2], over 100 µM; in assay [3] it was over 100 µM; in assay [4], over 100 µM; in assay [5] it was over 100 µM; in [6] it was 43 µM. The TGI in [7], in assay [8], in [9], in assay [19], in assay [10] and in assay [11] was over 100 µM in each case. Further, the TGI is over 100 µM in [12]; over 100 µM in assay [13]; over 100 µM in [15]; 98.1 µM in assay [16]; over 100 µM in assay [17]; over 100 µM in [18].
As for `CC(C)(C)c1ccc(-c2nc3ccccc3c(=O)o2)cc1`, the TGI in assay [1] was over 100 µM; in assay [2] it was over 100 µM; in assay [3], 91 µM; in [4], over 100 µM; in [5], over 100 µM; in assay [6] it was over 100 µM. In addition, the TGI in assay [7], in [8], in assay [9], in [10], in assay [11] and in [12] was over 100 µM in each case. Also, the TGI in assay [13] was 38.2 µM; in [14], 54.2 µM; in assay [15], over 100 µM; in [16] it was over 100 µM; in assay [17], over 100 µM; in assay [18], over 100 µM.
In the case of `CC1(C)CC(=O)C(CC(C(=O)C(=O)Nc2cc(C(F)(F)F)ccc2Cl)C(=O)c2ccco2)C(=O)C1` (stereo not given), the TGI in assay [1], in assay [2], in assay [3], in assay [4], in assay [5] and in assay [7] was over 100 µM each time. Moreover, the TGI in assay [8], in assay [9], in assay [19], in assay [10], in assay [11] and in assay [12] was over 100 µM throughout. Further, the TGI in assay [13], in assay [15], in assay [16], in [17] and in assay [18] was over 100 µM in each case.
For the compound `COC(=O)c1ccccc1/C=C1\Cc2cc3c(cc2C1=O)CCC3`, the TGI in [1], in assay [2], in assay [3], in assay [4], in assay [5] and in [6] was over 100 µM throughout. The TGI in assay [9], in [19], in assay [10], in assay [11], in assay [12] and in [13] was over 100 µM throughout. Besides, the TGI in [14], in assay [15], in [16], in assay [17] and in [18] was over 100 µM throughout.
Turning to `NC(=O)Cc1ncn(-c2ccccc2)n1`, the TGI in assay [1], in assay [2], in assay [3], in assay [4], in [5] and in assay [6] was over 100 µM each time. Further, the TGI in assay [7], in [8], in assay [9], in [19], in [10] and in assay [12] was over 100 µM in each case. In addition, the TGI in assay [13], in assay [14], in assay [15], in assay [16], in assay [17] and in assay [18] was over 100 µM throughout.
As for `Cc1nc2c(=O)[nH]c3ccccc3c2o1`, the TGI in assay [1], in assay [2], in [3], in assay [4], in assay [5] and in [6] was over 100 µM throughout. The TGI in assay [7], in [9], in assay [19], in assay [10], in assay [11] and in [12] was over 100 µM each time. For the same compound, the TGI in assay [13], in assay [15], in assay [16], in [17] and in [18] was over 100 µM throughout.
As to `Cc1[nH]c2ncn3ncnc3c2c1Cc1ccccc1`, the TGI in [1], in [2], in [3], in [4], in assay [5] and in assay [6] was over 100 µM in each case. Moreover, the TGI in assay [7], in [9], in assay [19], in assay [10], in [11] and in assay [12] was over 100 µM in each case. The TGI in assay [13], in [15], in [16], in [17] and in assay [18] was over 100 µM in each case.
